In US7235588B2, “Method for reducing hypertension and heart failure” (The Research Foundation of State University of New York, priority 2001, dated 2007):
Entries after “also recorded” stand apart in the source; their conditions may differ.

Tests used:
male C57/BL6 mice = assay: Transverse aortic constriction (TAC) induced left ventricular hypertrophy in mice; type: in vivo
Description: Pressure overload was produced by transverse aortic constriction (TAC) to induce left ventricular hypertrophy (FIG. 1). Briefly, male C57/BL6 mice, weighing 20 to 24 grams, were anesthetized by intra-peritoneal injection of a cocktail of ketamine (100 mg/kg) and xylazine ([…]). The mice were shaved, restrained, and orally intubated (under direct vision via a vertical cervical incision) using a 22 guage blunt feeding needle. Respiration was artificially controlled (tidal volume of 0.1 to 0.3 ml) at a respiratory rate of 110 to 150 breaths/minute using a ventilator (Harvard Apparatus Rodent Ventilator, model 683). A median sternotomy was performed and the sternum retracted. The thymus was retracted anteriorly and the aortic arch identified and ligated (using 8.0 nylon suture; Ethicon) between the innominate and left common carotid artery with an overlying 27-guage needle; and then the needle removed to leave a discrete region of stenosis. The chest was then closed in two layers (using 6.0 vicryl suture, Ethicon) and the pneumothorax evacuated. Some mice were subjected to a sham operation in which the aortic arch was visualized but not banded. The mice were then extubated and monitored post-op for 3 to 12 hours. The survival rate at the end of the learning period is greater than 90%.
Nine days post-op, the hearts were removed from heparinized (500 U) mice and euthanized with a lethal dose of pentobarbital (150 mg/kg). The hearts were analyzed by visual inspection of a cross-section of the heart (FIG. 2A), determination of heart to body weight ratio (FIG. 2B), and light microscopy of the cardiomyocytes in the left ventricular (FIG. 2C), and activation of artiel natuiretic factor (ANF), a specific molecular marker for hypertrophy (FIG. 3). Based on these determinations, all trans-aortic constricted mice developed well-defined left ventricular hypertrophy.
To determine whether tyrphostin AG490 could reverse the hypertrophy induced by traverse aortic constriction, tyrphostin AG490 (5 μM) was administered to the mice, intra-peritoneal, 24 hours before being subjected to transverse aortic constriction and every 24 hours thereafter for the duration of the study (9 days).

angiotensinogen mRNA [1] = assay: Angiotensinogen mRNA in hearts subjected to ischemia/reperfusion (primer extension assay); set-up: species or system rat; details: 30 min ischemia and 120 min reperfusion
Description: Ischemia was induced by a modified Langendorf-reperfusion method in rat hearts. Hearts from adult male rats were randomly divided into 4 groups and subjected to ischemia/reperfusion. In the ischemic group, hearts were perfused with Krebs-Henseleit buffer for 60 minutes, followed by 30 minutes of global ischemia. In the ischemic/reperfused group, hearts were perfused for 60 minutes, followed by 30 minutes of global ischemia and 120 minutes of reperfusion. Control group hearts were perfused for the same lengths of time.
Rat hearts subjected to ischemia/reperfusion were tested to determine whether activation of the renin-angiotensin system, as reflected by an increase in angiotensinogen mRNA, occurs in ischemic injury. The level of angiotensinogen mRNA was analyzed by primer extension assay using gene-specific DNA probes. A DNA primer spanning the complementary sequence of the rat angiotensinogen cDNA between nucleotides 302 and 279 (5′-[…]-3′) SEQ ID NO: 1 was end-labeled and used to evaluate the expression of angiotensinogen mRNA in total RNA isolated from the rat heart. The primer extension protocol was performed according to instructions provided by the supplier (Progema). Rat GAPDH cDNA specific primer was used as control. There was a marked increase in mRNA level after 30 minutes of ischemia and 120 minutes of reperfusion (FIG. 5A). […]

Jak2 = target: T1, Jak2 (Rattus norvegicus, UniProt Q62689); assay: Phosphotyrosine assay of Jak2 in hearts subjected to ischemia/reperfusion; details: ischemic heart, FIG. 6A
T1 construct: nuclear extracts from hearts subjected to ischemia/reperfusion in presence of absence of tyrphostin AG490 were immunoprecipitated; from tissue; host or cells: rat heart (nuclear extracts)
T1 sequence (Q62689 whole entry, the tested form may be a part): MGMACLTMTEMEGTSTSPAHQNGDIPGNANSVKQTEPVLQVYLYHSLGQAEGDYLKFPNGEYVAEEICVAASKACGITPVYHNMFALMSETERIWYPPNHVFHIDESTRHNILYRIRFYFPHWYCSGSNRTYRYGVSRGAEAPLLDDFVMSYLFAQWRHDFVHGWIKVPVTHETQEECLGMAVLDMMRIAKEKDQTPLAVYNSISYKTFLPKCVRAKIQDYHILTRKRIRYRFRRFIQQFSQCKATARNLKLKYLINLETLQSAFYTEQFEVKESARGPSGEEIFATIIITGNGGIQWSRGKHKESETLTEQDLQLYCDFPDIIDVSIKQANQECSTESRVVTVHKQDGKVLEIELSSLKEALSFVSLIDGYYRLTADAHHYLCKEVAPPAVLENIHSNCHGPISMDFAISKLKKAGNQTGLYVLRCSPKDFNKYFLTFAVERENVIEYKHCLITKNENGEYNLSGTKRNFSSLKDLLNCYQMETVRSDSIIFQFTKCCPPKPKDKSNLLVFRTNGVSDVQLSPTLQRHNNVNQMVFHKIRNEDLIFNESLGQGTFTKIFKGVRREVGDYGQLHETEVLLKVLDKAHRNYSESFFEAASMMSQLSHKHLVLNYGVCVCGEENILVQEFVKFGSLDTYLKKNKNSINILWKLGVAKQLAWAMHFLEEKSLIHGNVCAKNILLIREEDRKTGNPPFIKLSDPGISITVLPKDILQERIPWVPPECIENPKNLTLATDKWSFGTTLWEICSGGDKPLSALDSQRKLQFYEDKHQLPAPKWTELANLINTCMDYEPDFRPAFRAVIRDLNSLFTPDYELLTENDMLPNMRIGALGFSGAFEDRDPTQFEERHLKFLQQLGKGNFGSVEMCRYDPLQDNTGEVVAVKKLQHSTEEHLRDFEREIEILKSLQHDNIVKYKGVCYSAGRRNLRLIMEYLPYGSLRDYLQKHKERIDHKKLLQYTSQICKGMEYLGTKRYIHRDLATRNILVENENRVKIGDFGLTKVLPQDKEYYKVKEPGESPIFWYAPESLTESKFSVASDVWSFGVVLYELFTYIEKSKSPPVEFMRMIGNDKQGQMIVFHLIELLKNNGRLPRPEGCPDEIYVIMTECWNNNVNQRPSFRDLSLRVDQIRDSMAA
Description: Rats were pretreated with 5 or 50 μmol/L of tyrphostin AG490 24 h prior to ischemia/reperfusion followed by chronic administration of tyrphostin AG490 during the process of ischemia/reperfusion. A phosphotyrosine assay was performed. Briefly, nuclear extracts from hearts subjected to ischemia/reperfusion in presence of absence of tyrphostin AG490 were immunoprecipitated with anti-phosphotyrosine antibodies (4G10). Fifty microliters of 50% protein A-agarose, prewashed in lysis buffer (Upstate Biotechnology) was then added and the mixture was incubated for 2 hr at 4° C. Each sample was washed with washing buffer containing 150 mM NaCl, 50 mM Tris-HCL (pH 7.4), 5 mM EDTA, 0.25% Triton X-100, 2 mM phenylmethylsulfonyl fluoride, aprotinin (0.2 unit/ml), 1 mM Na3VO4, and 1 mM NaF. Samples were eluted in 2× Laernmli's sample buffer. Proteins were separated on a 7.5% SDS/polyacrylamide gel and transferred to nitrocellulose membrane, Nitropure (Micron Separations, Westboro, Mass.). Blots were probed with polyclonal antibody against Jak2 and developed according to the chemiluminescence protocol. Administration of tyrphostin AG490 in perfusion medium was inhibitory at both 5 and 50 μmol/L for pliosphorylation of Jak2, which was activated readily in the ischemic heart in absence of the inhibitor (FIG. 6A).

angiotensinogen mRNA [2] = assay: Angiotensinogen mRNA expression in vivo in rat liver (northern blot); details: daily treatment to achieve 5 μM systemically, 10 days
Description: Tyrphostin AG490 was administered to rats in vivo. A subcutaneous pump was surgically placed with a catheter extended intraperitoneally. Rats were daily treated with tyrphostin AG490 to achieve a 5 μM concentration systemically. After 10 days, the animals were euthanized using approved animal protocols and the liver collected to isolate RNA. The isolated RNA was used to perform a northern blot and the nitrocellulose membrane was probed with the rat angiotensinogen cDNA. Loading control was performed using GAPDH as probe.

- phosphorylation of Jak2 (Jak2; 5 μmol/L in perfusion medium): inhibitory
- phosphorylation of Jak2 (Jak2; 50 μmol/L in perfusion medium): inhibitory
SMILES: N#C/C(=C\c1ccc(O)c(O)c1)C(=O)NCc1ccccc1 [tyrphostin AG490]
- reversal of hypertrophy induced by transverse aortic constriction (male C57/BL6 mice; 5 μM intra-peritoneal, 24 h before TAC and every 24 h for 9 days): remarkable reversal of hypertrophy
- LVH by visual inspection of cross section of the heart (male C57/BL6 mice; FIG. 2A, TAC mice): decrease in LVH
- ratio of heart weight to body weight (male C57/BL6 mice; FIG. 2B, TAC mice): decrease in ratio of heart weight to body weight
- hypertrophy of cardiomyocytes of left ventricle by light microscopy (male C57/BL6 mice; FIG. 2C, TAC mice): decrease in hypertrophy
- ANF (atrial natriuretic factor, marker for hypertrophy) (male C57/BL6 mice; FIG. 3, during cardiac hypertrophy): ANF inhibition
- angiotensinogen mRNA level (angiotensinogen mRNA [1]): inhibited the stimulation of the angiotensinogen mRNA level; also recorded: inhibition of angiotensinogen mRNA
- expression of angiotensinogen gene product mRNA (angiotensinogen mRNA [2]): abolished the expression of angiotensinogen gene product mRNA; also recorded: attenuation of angiotensinogen mRNA expression
